Entries after “also recorded” stand apart in the source; their conditions may differ.

Test [1] addresses T1, P2Y11 receptor (Homo sapiens, UniProt Q96G91).
T1 sequence (Q96G91 1-374): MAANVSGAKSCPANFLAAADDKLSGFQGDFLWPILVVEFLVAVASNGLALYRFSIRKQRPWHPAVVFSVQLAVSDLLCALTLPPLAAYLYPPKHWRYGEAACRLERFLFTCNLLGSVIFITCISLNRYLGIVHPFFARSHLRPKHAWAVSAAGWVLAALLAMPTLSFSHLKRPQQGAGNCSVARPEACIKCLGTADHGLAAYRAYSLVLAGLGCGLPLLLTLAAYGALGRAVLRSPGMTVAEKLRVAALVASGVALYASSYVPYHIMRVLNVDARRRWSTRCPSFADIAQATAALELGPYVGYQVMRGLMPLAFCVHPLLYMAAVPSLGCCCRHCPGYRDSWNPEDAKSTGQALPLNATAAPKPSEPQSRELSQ
The following applies: reported in reference (29), different cell line; cited from earlier work.

Test [2] deals with T1, P2Y11 receptor. Nature of the test: Multiplex DAG2 and R-GECO1 sensors with P2Y11 receptor in HEK 293 cells. Also noted: expressed in transfected cells; host or cells: HEK 293. As to conditions: HEK cells expressing human P2Y11 receptor. In kind it is cell-based. An excerpt:
To explore whether multiplex sensors could be used to detect this distinct signaling pattern, we expressed the human P2Y11 receptor with combinations of the Downward DAG2, or Upward DAG2, and R-GECO1 sensors. […] (FIG. 8).

For test [3], the system named is DAG sensors. Nature of the test: Effect of DMSO on the DAG assay. In kind it is cell-based. How it is done: Many compound libraries are carried by DMSO, a vehicle that can cause artifacts in live cell assays. […] At moderate final concentrations of 0.1 to 1%, the DMSO produced no effect, while at higher concentrations artifactual, DMSO triggered changes in fluorescence did occur. The effect of DMSO on the DAG sensors was negligible at final concentrations of 0.1 to 1%, but detectable at 2% or greater.

The test system of test [4] is DAG sensors. Nature of the test: Direct activation of DAG sensors in cells by phorbol ester PDBu. In kind it is cell-based. An excerpt: In transient expression it is possible to produce high concentrations of the protein-based sensor than the analyte itself [Falkenburger et al].
(§1) To test for the independence of the signals being detected by these sensors, we increased intracellular Ca2+ by applying ionomycin.

For a further test, the system named is intracellular Ca2+. Nature of the test: Independence test: ionomycin raises intracellular Ca2+ in cells expressing Ca2+, DAG or PIP2 sensors. In kind it is cell-based.
Description: as §1

For a further test, the system named is DAG. Briefly: DAG sensor fluorescence change on carbachol stimulation of co-expressed M1 receptor in HEK 293 cells (time-lapse imaging). In kind it is cell-based, human. An excerpt: These changes were easily detected in time-lapse imaging and occurred in all transfected cells with remarkably little cell to cell variability. […] The signals then returned to baseline quite slowly (t-170 seconds, FIG. 3C).

The subject of another test is PIP2 and DAG. Nature of the test: Co-expressed PIP2r and DAG sensors, M1 receptor activation (PLC substrate and product). In kind it is cell-based. As to conditions: PIP2r co-expressed with DAG sensor, FIG. 7A. An excerpt: Stimulation of phospholipase C cleaves PIP2 and produces DAG. Co-expression of the Upward DAG2 or Downward DAG2 sensor with the PIP2r sensor provides a new view of both the substrate and product of phopholipase C (FIG. 7). To our knowledge, this is the first time that genetically encoded biosensors have been used to simultaneously measure substrate and product. M1 receptor activation produced a remarkable change in the intensity and distribution of both sensors. […] The onset of the response of the Upward and Downward DAG2 sensors, as well as PIP2r, is kinetically quite similar. However the return to baseline is considerably slower for the Downward DAG2 and PIP2r sensors (FIG. 7B).

Another test deals with PIP2. Nature of the test: PIP2 sensor response to M1 receptor activation. In kind it is cell-based. As to conditions: FIGS. 6A and B. An excerpt: Phospholipase C hydrolyses PIP2 to produce both DAG and IP3. To independently check the fidelity and kinetics of the DAG sensors, we created a red fluorescent PIP2 sensor by fusing the pleckstrin homology (PH) domain of PLCδ to two different components of the recently described dimerization-dependent red fluorescent proteins (26). Previous work has shown that the translocation of the PLCδ PH domain can be used to measure PIP2 turnover (27), and if the PH domains carry FRET pairs of fluorescent proteins a small change in FRET occurs when PLC is activated (28). […] Because this sensor relies on the fluorescence of one protein, rather than a FRET pair, it could be multiplexed with the green fluorescent DAG sensors for simultaneous measurement of both PIP2 and DAG in living cells. The amino acid sequences of this pair of constructs forming a novel PIP2 sensor are shown as SEQ ID NO:70 and SEQ ID NO:71, and the nucleotide sequences encoding them are shown as SEQ ID NO:72 and SEQ ID NO:73.

Setting [5] is: carbachol stimulation of the M1 receptor.

With `Nc1ncnc2c1ncn2[C@@H]1O[C@H](COP(=O)(O)OP(=O)(O)OP(=O)(O)O)[C@@H](O)[C@H]1O` [ATP], the “signaling at the P2Y11 receptor as reported” value at P2Y11 receptor [1] was “produces inositol phosphate turnover and transient Ca2+ signaling”. At P2Y11 receptor [2], the “Ca2+ response (R-GECO1)” value was “triggered a Ca2+ response; also recorded: transient increase in Ca2+” and the “PLC pathway signaling (Upward or Downward DAG2 sensors)” value is “triggers signaling via the phospholipase C pathway; also recorded: activating the PLC pathway”.

As to `C[S+](C)[O-]` [DMSO], the “effect of DMSO on the DAG sensors” value in the test on DAG sensors [3] (2% or greater) is given as “detectable”; in the test on DAG sensors [3] (final concentrations of 0.1 to 1%), “negligible; also recorded: no effect”.

Regarding `CCCC(=O)O[C@@H]1[C@@H](C)[C@@]2(O)[C@@H](C=C(CO)C[C@]3(O)C(=O)C(C)=C[C@@H]23)[C@@H]2C(C)(C)[C@]12OC(=O)CCC` [PDBu], in the test on DAG sensors [4] (cells first stimulated with carbachol, then PDBu), the “additional change in sensor fluorescence on PDBu applied after carbachol” value is given as “additional increase in fluorescence; also recorded: additional doubling of the change in intensity”. In addition, the “activation of DAG sensor by PDBu added after ionomycin” value in the test on DAG sensors [4] (subsequent addition after ionomycin, FIG. 4C) is recorded as “activates Downward DAG; also recorded: subsequently activated”.

Consider `O=c1ccn([C@@H]2O[C@H](COP(=O)(O)OP(=O)(O)OP(=O)(O)O)[C@@H](O)[C@H]2O)c(=O)[nH]1` [UTP], for which, on P2Y11 receptor [1], the “signaling at the P2Y11 receptor as reported” value is recorded as “only triggers a Ca2+ response”. Moreover, at P2Y11 receptor [2], the “Ca2+ response (R-GECO1)” value is “triggered a Ca2+ response; also recorded: transient increase in Ca2+” and the “PLC pathway signaling (Upward or Downward DAG2 sensors)” value is “causing a Ca2+ transient in a very different way; also recorded: producing a Ca2+ transient through a different pathway”.

With `C[C@H](CCC(=O)O)C[C@H](C)C[C@H](C)C(=O)/C=C(\O)[C@H](C)C[C@H](C)C/C=C/[C@@H](C)[C@@H](O)[C@@H](C)[C@@H](O)C[C@@H]1CC[C@@](C)([C@H]2CC[C@@](C)([C@@H](C)O)O2)O1` [ionomycin], the “effect of raising intracellular Ca2+ on DAG and PIP2 levels” value in the test on intracellular Ca2+ (ionomycin added before PdBU or M1 receptor activation, FIGS. 6C and D) was “no apparent effect on the DAG and PIP2 levels”. Moreover, in the test with intracellular Ca2+ (ionomycin applied, FIG. 4C), the “R-GECO (Ca2+ sensor) response” value is “produces a change in R-GECO; also recorded: robust R-GECO1 response” and the “change in DAG sensor” value is given as “not Downward DAG; also recorded: no detectable change in the DAG sensor”.

In the case of “Downward DAG: DAG sensor: cpEGFP at K152 of PKC delta truncated at L122; fluorescence decreases upon binding to DAG”, in the test on DAG (setting [5]), the “loss (decrease) in fluorescence” value is listed as 40%. In addition, the “time over which the fluorescence loss occurs” value in the test with DAG (mean of 4 cells) amounted to 15 s.

In the test with DAG (setting [5]), “Upward DAG: DAG sensor: cpEGFP at N158 of PKC delta truncated at L122; fluorescence increases upon binding to DAG” showed a fluorescence increase of 45%. In addition, the “change in sensor fluorescence on M1 receptor activation” value in the test with PIP2 and DAG is listed as “green fluorescence increases”.

B1: PIP2 sensor: red fluorescent PIP2 sensor: PH domain of PLCδ fused to each member of the ddRFP pair (protein)
chain 1: MVSKSEEVIKEFMRFKVRLEGSMNGHEFEIEGEGEGRPYEGTQTAKLKVTKGGPLPFAWDILSPQIMYGSKAYVKHPADVPDYMKLSFPEGFKWERVMHFEDGGLVTVTQDTSLQDGTLIYKVKMRGTNFPPDGPVMQKKTLGWDYATERLYPEDGVLKGELLGRLKLKDGGLNLVEFKTIYMAKKPVQLPGYYFVDTKLGITSHNEDYTIVEQYERSEGRHHLGMDELYKRSRAQASNSAVDGTAGPGSMDSGRDFLTLHGLQDDEDLQALLKGSQLLKVKSSSWRRERFYKLQEDCKTIWQESRKVMRTPESQLFSIEDIQEVRMGHRTEGLEKFARDVPEDRCFSIVFKDQRNTLDLIAPSPADAQHWVLGLHKIIHHSGSMDQRQKLQHWIHSCLRKADKNKDNKMSFKELQNFLKELNIQ
chain 2: MVSKGEETIKEFMRFKVRMEGSMNGHEFEIEGEGEGRPYEGTQTAKLKVTKGGPLPFAWDILSPQFMYGSEAYVRHPADIPDYKKLPFPEGFKWERVMNFEDGGLVTVTQDSSLQDGTLICKVKMRGTNFPPDGPVMQKKTMGWEASTEMLYPEDGVLKGHSYQALKLKDGGHYLVEFETIYMAKKPVQLPGDYCVDTKLDITSHNEDYTIVEQYGRSEGRHRLGMDERYKRSRAQASNSAVDGTAGPGSMDSGRDFLTLHGLQDDEDLQALLKGSQLLKVKSSSWRRERFYKLQEDCKTIWQESRKVMRTPESQLFSIEDIQEVRMGHRTEGLEKFARDVPEDRCFSIVFKDQRNTLDLIAPSPADAQHWVLGLHKIIHHSGSMDQRQKLQHWIHSCLRKADKNKDNKMSFKELQNFLKELNIQ
modifications: Synthetic sequence, a.a. sequence of PIP2 sensor fragment [PIP2-A1]; Synthetic sequence, a.a. sequence of PIP2 sensor fragment [PIP2-B1]
notes: red fluorescent PIP2 sensor: PH domain of PLCδ fused to each member of the ddRFP pair
B1: the “change in sensor fluorescence on M1 receptor activation” value with PIP2 and DAG was “red fluorescence decreases”. For the same molecule, the “red fluorescent signal at the membrane with M1 receptor activation” value in the test on PIP2 is reported as “rapidly disappeared”.

(Values after patent US9547017B2, “Genetically encoded fluorescent sensors for detecting intracellular signalling through diacylglycerol pathways” (MONTANA MOLECULAR LLC, priority 2012, dated 2017).)
